{
  "source": "paper PMC6201103",
  "about": "“The Small-Compound Inhibitor K22 Displays Broad Antiviral Activity against Different Members of the Family Flaviviridae and Offers Potential as a Panviral Inhibitor” (Antimicrobial Agents and Chemotherapy, 2018)",
  "key": {"JEV": {"tested_on": "JEV", "experiment": "JEV infectivity (TCID50 titration) and replication in K22-treated Vero cells", "assay_type": "cell-based, Japanese encephalitis virus", "settings": "for IC50: Japanese encephalitis virus, MOI 0.1 TCID50/cell", "description": "To test the effect of K22 on flavivirus, hepacivirus, and pestivirus infection, 8 × 10^4 Vero cells were seeded in 12-well dishes (flaviviruses), 5 × 10^4 Huh7-Lunet-N-hCD81-FLuc cells were seeded in 12-well dishes (hepacivirus), or 1 × 10^4 BT cells were seeded in 96-well dishes (pestivirus). At 1 day postseeding, cells were treated with different concentrations of K22 (diluted in DMSO at the concentrations indicated below) for 3 to 4 h and preincubated in 5% CO2 at 37°C. Cells were infected with different viruses at a multiplicity of infection (MOI) of 0.1 TCID50/cell for 1 h at 37°C. For HCV infection, cells were infected with JcR-2a or HCV Jc1 for 3 h at 37°C. Afterwards, cells were washed with prewarmed phosphate-buffered saline (PBS) solution, before cell culture medium supplemented with K22 or the DMSO control at each concentration was added, and incubated at 37°C in a 5% CO2 atmosphere. At 24 h and/or 48 h postinfection (p.i.), supernatants and cells were collected for further analysis.\nFlavivirus replication and the cytopathic effect (CPE) were evaluated from collected cells. Cells in suspension were first labeled with the Fixable Aqua dead cell stain kit (Thermo Fisher Scientific, Waltham, MA, USA) for 30 min on ice, followed by washing with cold PBS. […] After washing, anti-mouse IgG2a conjugated with Alexa Fluor 647 (Thermo Fisher Scientific) was added for 15 min, and the cells were acquired on a FACSCanto II flow cytometer (BD Biosciences, Allschwil, Switzerland). FlowJo (v.9.1) software (TreeStar, Inc., Ashland, OR, USA) was used for analysis. Cell debris and doublets were excluded by electronic gating in forward/side scatter plots. Cell culture supernatants were collected at 24 and 48 h p.i., and the flavivirus titers in Vero cells were determined using the immunoperoxidase monolayer assay (IPMA). For that, supernatants 10-fold diluted in cell culture medium supplemented with 2% (vol/vol) FBS were incubated on Vero cells for 72 h at 37°C in a 5% CO2 atmosphere. At that point, cells were fixed in 4% (wt/vol) PFA for 10 min at room temperature, washed, and immunolabeled with anti-flavivirus group antigen antibody 4G2 diluted in 0.3% (wt/vol) saponin in PBS for 30 min at 37°C and then washed and incubated for another 30 min at 37°C with goat anti-mouse IgG conjugated with horseradish peroxidase (Dako), followed by incubation for 10 to 30 min at room temperature with 3-amino-9-ethylcarbazole (AEC) substrate (Sigma-Aldrich)."}, "USUV": {"tested_on": "USUV", "experiment": "microbe, parasite or virus in culture", "assay_type": "cell-based, Usutu virus", "settings": "for IC50: Usutu virus, Vero, read-out: IC50, USUV infectivity"}, "WESSV": {"tested_on": "WESSV", "experiment": "microbe, parasite or virus in culture", "assay_type": "cell-based, Wesselsbron virus", "settings": "for IC50: Wesselsbron virus, Vero, read-out: IC50, WESSV infectivity"}, "[1]": {"experiment": "MTT cell proliferation assay", "assay_type": "cell-based", "settings": "human, Huh7-Lunet-N-hCD81-FLuc cells, 48 h posttreatment"}, "[2]": {"tested_on": "Huh7-Lunet-N-hCD81-FLuc cells", "experiment": "MTT cell proliferation assay", "assay_type": "cell-based"}, "BVDV SuwaNcp": {"tested_on": "BVDV SuwaNcp", "experiment": "microbe, parasite or virus in culture", "assay_type": "cell-based, bovine viral diarrhea virus"}, "[3]": {"experiment": "Proliferation, MultiTox-Fluor multiplex cytotoxicity assay on BT cells", "assay_type": "cell-based, bovine", "settings": "bovine, MultiTox-Fluor assay", "description": "(§1) To evaluate the effect of K22 on cell viability, proliferation, as well as cytotoxicity, uninfected cells were treated with the compound at the concentrations specified above or with DMSO as a control. To determine the effect of K22 on cell viability, Vero cells were collected and labeled with the Fixable Aqua dead cell stain kit (Thermo Fisher Scientific) for 30 min on ice, before the cells were washed with cold PBS and fixed for flow cytometry analysis. As a positive control for cell death, cells were heated at 65°C for 30 min. The mean fluorescence intensity (MFI) was determined by flow cytometry analysis on a FACSCanto II flow cytometer (BD Bioscience) and evaluated using FlowJo (v.9.1) software. […] The compound was added at the concentrations indicated above, and cytotoxicity was determined at 24 and/or 48 h p.i. by determination of the absorbance at 490 nm using a plate reader (VersaMax [Molecular Devices, Wokingham, UK] or an EnSpire 2300 multilabel reader [PerkinElmer, Schwerzenbach, Switzerland]). Cell proliferation following compound treatment was determined using a MultiTox-Fluor multiplex cytotoxicity assay (catalog number G9200; Promega) according to the manufacturer's recommendations. The readout was performed using a multilabel reader (EnSpire 2300 multilabel reader; PerkinElmer) upon excitation at ∼400 nm and emission at ∼505 nm. […]"}, "BT cells": {"tested_on": "BT cells", "experiment": "Proliferation, MultiTox-Fluor multiplex cytotoxicity assay on BT cells", "assay_type": "cell-based, bovine", "description": "as §1"}, "Vero cells": {"tested_on": "Vero cells", "experiment": "Cytotoxicity on Vero cells (Fixable Aqua dead cell stain flow cytometry; CytoTox 96 assay)", "assay_type": "cell-based", "settings": "concentrations of Fig. 1c, confirmed with commercial kit", "description": "as §1"}, "Vero B4 cells": {"tested_on": "Vero B4 cells", "experiment": "Proliferation/viability, MultiTox-Fluor multiplex cytotoxicity assay on Vero B4 cells", "assay_type": "cell-based", "description": "as §1"}, "ZIKV [4]": {"tested_on": "ZIKV", "experiment": "Combination treatment, ZIKV titers (TCID50) in Vero B4 cells", "settings": "for combination index (CI): CompuSyn"}, "ZIKV [5]": {"tested_on": "ZIKV", "experiment": "Immunofluorescence analysis of E protein and dsRNA in ZIKV-infected Vero cells", "settings": "30 μM K22, 48 h p.i."}},
  "note": "Several values for one entry are separate records, joined by “and”; a condition that tells them apart may be missing. Equal entries are not always repeated. Where two headings read alike, the source gives them in different places.",
  "data": [
    {"smiles": "O=C(N/C(=C\\c1ccccc1)C(=O)N1CCC(O)(c2ccc(Br)cc2)CC1)c1ccccc1", "note": "[K22, (Z)-N-{3-[4-(4-bromophenyl)-4-hydroxypiperidin-1-yl]-3-oxo-1-phenylprop-1-en-2-yl} benzamide]", "values": [
      {"measurement": "SI (selectivity index), JEV", "setting": "JEV; 24 h p.i.", "result": 193.9},
      {"measurement": "SI (selectivity index), JEV", "setting": "JEV; 48 h p.i.", "result": 19.1},
      {"measurement": "IC50", "setting": "JEV; 24 h p.i., Vero cells", "result": 0.5, "unit": "µM"},
      {"measurement": "IC50", "setting": "JEV; 48 h p.i., Vero cells", "result": 4.4, "unit": "µM"},
      {"measurement": "K22 concentrations reducing JEV replication and infectivity", "setting": "JEV; dose-dependent, Vero cells", "result": "≥ 5", "unit": "µM"},
      {"measurement": "IC50", "setting": "USUV; 24 h", "result": 9, "unit": "µM"},
      {"measurement": "IC50", "setting": "USUV; 48 h", "result": "~10", "unit": "µM"},
      {"measurement": "K22 concentrations necessary to significantly inhibit USUV", "setting": "USUV; Vero cells", "result": "≥ 20", "unit": "µM"},
      {"measurement": "SI (selectivity index), WESSV", "setting": "WESSV", "result": "15.2 and 12.5"},
      {"measurement": "K22 concentrations necessary to significantly inhibit WESSV", "setting": "WESSV; Vero cells", "result": "≥ 20", "unit": "µM"},
      {"measurement": "IC50", "setting": "WESSV; 24 h", "result": 5.9, "unit": "µM"},
      {"measurement": "IC50", "setting": "WESSV; 48 h", "result": 6.8, "unit": "µM"},
      {"measurement": "CC50 at 48 h", "setting": "[1]", "result": 21.3, "unit": "µM"},
      {"measurement": "K22 concentrations affecting the cells used for infection", "setting": "[2]", "result": "≥ 20", "unit": "µM"},
      {"measurement": "SI (selectivity index), BVDV SuwaNcp", "setting": "BVDV SuwaNcp", "result": ">16.4"},
      {"measurement": "K22 concentration necessary to significantly reduce infectivity of BVDV SuwaNcp", "setting": "BVDV SuwaNcp; BT cells", "result": "≥ 40", "unit": "µM"},
      {"measurement": "IC50", "setting": "BVDV SuwaNcp; Bovine viral diarrhea virus isolates and strains, read-out: IC50 for infectivity, BVDV SuwaNcp", "result": 21.4, "unit": "µM"},
      {"measurement": "CC50", "setting": "[3]", "result": "> 350", "unit": "µM"},
      {"measurement": "K22 concentrations affecting cell proliferation", "setting": "BT cells", "result": "≥ 30", "unit": "µM"},
      {"measurement": "cytotoxic effect of K22", "setting": "Vero cells", "result": "no cytotoxic effect"},
      {"measurement": "K22 concentrations that mildly affected cell proliferation", "setting": "Vero B4 cells", "result": "≥ 30", "unit": "µM"},
      {"measurement": "reduction of ZIKV viral titers", "setting": "ZIKV [4]; 5 to 10 μM K22 combined with ≥10 IU IFN-α, 24 h p.i., no further impact on cell proliferation", "result": "at least 3 orders of magnitude"},
      {"measurement": "combination index (CI)", "setting": "ZIKV [4]; K22 10 to 30 μM with 10 IU IFN-α, slight synergism", "result": "< 1"},
      {"measurement": "combination index (CI)", "setting": "ZIKV [4]; K22 and RBV, concentrations causing only partial inhibition, additive effect", "result": "about 1"},
      {"measurement": "effect of combination on antiviral effect of K22", "setting": "ZIKV [4]; K22 with either 0.1 or 1 μg/ml RBV", "result": "did not improve the antiviral effect of K22"},
      {"measurement": "viral E protein and dsRNA markers of infection", "setting": "ZIKV [5]", "result": "severely reduced"}
    ]}
  ]
}
